Conditions: in water

O=C(O)CCCCCCCC(=O)O
Conditions	solubility (mole fraction)
280.15 K	5.94e-05
285.85 K	8.13e-05
291.85 K	0.000117
298.15 K	0.000171
307.85 K	0.000287
316.15 K	0.000336
325.75 K	0.000481
330.15 K	0.0007
334.65 K	0.000931
338.15 K	0.00128
344.15 K	0.00132
347.65 K	0.00153
353.05 K	0.00191
357.65 K	0.00173

O=C(O)COCC(=O)O
Conditions	solubility (mole fraction)
278.25 K	0.0365
284.15 K	0.0469
288.75 K	0.0686
293.75 K	0.0748
296.65 K	0.0823
301.25 K	0.104
310.65 K	0.128
313.15 K	0.139
321.15 K	0.161
323.15 K	0.167
327.65 K	0.188
332.65 K	0.205
338.15 K	0.22
343.15 K	0.239
348.15 K	0.254
353.05 K	0.268
357.15 K	0.284
361.35 K	0.295

CC(=O)CCC(=O)O
Conditions	solubility (mole fraction)
280.15 K	0.18
283.15 K	0.214
287.65 K	0.278
293.95 K	0.374
298.15 K	0.448
303.25 K	0.519

O=C(O)CCCCCCC(=O)O
Conditions	solubility (mole fraction)
280.15 K	9.55e-05
285.85 K	0.000128
291.85 K	0.000177
298.15 K	0.00025
305.65 K	0.000341
307.65 K	0.000369
313.15 K	0.00042
317.65 K	0.000485
323.35 K	0.000579
325.85 K	0.00064
334.65 K	0.00101
337.15 K	0.00117
343.25 K	0.00149
349.65 K	0.00212
